Data on 26 molecules can be found in patent US10702526B2, “Inhibitors of immune checkpoint modulators and related methods” (eFFECTOR Therapeutics, Inc., priority 2015, dated 2020).

The test system of series [1] is PD-1 expression on Jurkat cells. Description: PD-1 expression on PHA/PMA-activated Jurkat T cells (flow cytometry). The class given is cell-based, human. The conditions noted are these: Jurkat T cell assay, MNK-specific inhibitors. How it is done: (§1) To examine the effect of MNK-specific inhibitors on PD-1 expression, Jurkat cells (Clone E6.1, ATCC, transformed T cells) were used, which express PD-1 when activated through T cell receptor (TCR) signaling. Briefly, Jurkat cells were grown in 1×RPMI with 1× Pen/Strep, and 10% FBS, then about 3×10^6 Jurkat cells were activated in presence of 1 μg/mL PHA (Sigma) and 50 ng/mL PMA (Sigma). Test Cells were treated simultaneously with various concentrations of MNK-specific inhibitor Compound 107 (0, 0.01, 0.1, 1, 3 and 10 μM). After 48 hours, culture supernatants were harvested and examined via sandwich ELISA for the presence of IL-2 using human IL-2 ELISA DuoSet® (R&D Systems, Minneapolis, Minn.). The level of PD-1 on Jurkat cells was examined by incubating cells with fixable dead cell stain (1:20,000; BD Biosciences, San Jose, Calif.) for 15 minutes at 4° C., washed twice with flow staining buffer (1×PBS, 4% FBS and 1 mM EDTA), incubated with human FcR block, then contacted with allophycocyanin (APC) conjugated anti-PD-1 antibody (Biolegend, San Diego, Calif.) for 30 minutes at 4° C., washed two times with flow buffer, and finally cells were fixed with fixation buffer for 20 minutes at 4° C. After fixation, cells were washed twice with flow buffer and re-suspended in flow buffer and assessed for fluorescence using BD Accuri C6 flow cytometer. Data were analyzed using the C6 cytometer software (BD Biosciences, San Jose, Calif.).
(Flow cytometry measures light scatter and fluorescence of single cells or particles in a stream.)

A further series deals with Jurkat cells. The series is described as follows: Jurkat T cell viability (fixable dead cell stain). The class given is cell-based. To be noted: Jurkat T cell assay, MNK-specific inhibitors. How it is done: as §1
The subject of series [2] is IL-10 production in primary T cells. Description: IL-10 production by activated primary T cells. The class given is cell-based, human.

Take `Cc1cc(Nc2cc(N)ncn2)c(=O)n2c1C(=O)NC21CCCC1.Cl` [Compound 98]: the “% PD-1 + Inhibition” value in series [1] is “+++ (+++ = 50-75%)”. In addition, the “Cell Death” value with Jurkat cells is recorded as “− (− = 0-10%)”.

On to `Cc1cc(Nc2ncnc(N)c2C)cc2c1C(=O)NC21CCCCC1` [Compound 440], for which, in series [1], the “% PD-1 + Inhibition” value is “++++ (++++ = 75-100%)”. In the series with Jurkat cells, the “Cell Death” value was “− (− = 0-10%)”.

Turning to `Cc1cc(Nc2ncnc(N)c2Cl)cc2c1C(=O)NC21CCCCC1` [Compound 462], the “% PD-1 + Inhibition” value in series [1] is “++++ (++++ = 75-100%)”. Further, the “Cell Death” value in the series with Jurkat cells is listed as “+ (+ = 10-25%)”.

As for `Cc1cc(Nc2ncnc(N)c2Cl)c(=O)n2c1C(=O)NC21CCCCC1` [Compound 474], the “% PD-1 + Inhibition” value in series [1] was “+++ (+++ = 50-75%)”. The “Cell Death” value in the series with Jurkat cells is “− (− = 0-10%)”. Besides, the “% IL-10 Inhibition” value in series [2] was “++++ (++++ = 75-100%)”.

As to `Cc1cc(Nc2ncnc(N)c2C)c(=O)n2c1C(=O)NC21CCN(CC(F)F)CC1` [Compound 590], the “% PD-1 + Inhibition” value in series [1] is “++ (++ = 25-50%)”. Moreover, the “Cell Death” value in the series on Jurkat cells is on record as “− (− = 0-10%)”. In series [2], the “% IL-10 Inhibition” value is recorded as “++++ (++++ = 75-100%)”.

For `Cc1cc(Nc2ncnc(N)c2Cl)c(=O)n2c1C(=O)NC21CCN(CC(F)F)CC1` [Compound 611], in series [1], the “% PD-1 + Inhibition” value is reported as “++ (++ = 25-50%)”. Also, the “Cell Death” value with Jurkat cells is “− (− = 0-10%)”.

With `Cc1cc(Nc2ncnc(N)c2C)nc2c1C(=O)NC21CCCCC1` [Compound 622], in series [1], the “% PD-1 + Inhibition” value was “++++ (++++ = 75-100%)”. Besides, the “Cell Death” value with Jurkat cells is given as “− (− = 0-10%)”.

As for `Cc1cc(Nc2ncnc(N)c2Cl)nc2c1C(=O)NC21CCCCC1` [Compound 624], in series [1], the “% PD-1 + Inhibition” value was “++++ (++++ = 75-100%)”. The “Cell Death” value in the series on Jurkat cells is recorded as “+ (+ = 10-25%)”.

With `Cc1cc(Nc2ncnc(N)c2C)c(=O)n2c1C(=O)NC21CCOCC1` [Compound 626], the “% PD-1 + Inhibition” value in series [1] is on record as “++ (++ = 25-50%)”. For the same molecule, the “Cell Death” value with Jurkat cells was “− (− = 0-10%)”.

For `Cc1cc(Nc2ncnc3[nH]ccc23)cc2c1C(=O)NC21CCCCC1` [Compound 637], in series [1], the “% PD-1 + Inhibition” value is reported as “++++ (++++ = 75-100%)”. Also, in the series on Jurkat cells, the “Cell Death” value is listed as “++ (++ = 25-50%)”.

`Cc1cc(-n2ccc3c(N)ncnc32)nc2c1C(=O)NC21CCCCC1` [Compound 652]: the “% PD-1 + Inhibition” value in series [1] is on record as “++++ (++++ = 75-100%)”. In addition, the “Cell Death” value with Jurkat cells is “− (− = 0-10%)”.

With `Cc1cc(Nc2ncnc(N)c2Cl)c(=O)n2c1C(=O)NC21CCCNC1` (stereo not shown) [Compound 750], the “% PD-1 + Inhibition” value in series [1] was “+++ (+++ = 50-75%)”. Besides, the “Cell Death” value in the series on Jurkat cells is recorded as “− (− = 0-10%)”. For the same molecule, the “% IL-10 Inhibition” value in series [2] was “++++ (++++ = 75-100%)”.

Turning to `Cc1cc(Nc2ncnc(N)c2Cl)c(=O)n2c1C(=O)NC21CCN(C2CC2)CC1` [Compound 752], the “% PD-1 + Inhibition” value in series [1] is recorded as “− (− = 0-10%)”. For the same molecule, the “Cell Death” value in the series on Jurkat cells is “− (− = 0-10%)”.

Turning to `Cc1cc(Nc2ncnc(N)c2C)c(=O)n2c1C(=O)NC21CCN(CCC(F)(F)F)CC1` [Compound 753], the “% PD-1 + Inhibition” value in series [1] is given as “− (− = 0-10%)”. Further, in the series on Jurkat cells, the “Cell Death” value is “− (− = 0-10%)”.

For `Cc1cc(Nc2ncnc(N)c2Cl)c(=O)n2c1C(=O)NC21CCN(CCC(F)(F)F)CC1` [Compound 775], in series [1], the “% PD-1 + Inhibition” value is “− (− = 0-10%)”. Further, the “Cell Death” value with Jurkat cells was “− (− = 0-10%)”.

For the molecule `CCCN1CCC2(CC1)NC(=O)c1c(C)cc(Nc3ncnc(N)c3Cl)c(=O)n12` [Compound 776], the “% PD-1 + Inhibition” value in series [1] was “+ (+ = 10-25%)”. Besides, in the series on Jurkat cells, the “Cell Death” value was “− (− = 0-10%)”.

In the case of `Cc1cc(Nc2ncnc(N)c2OCCN)c(=O)n2c1C(=O)NC21CCCCC1` [Compound 827], the “% PD-1 + Inhibition” value in series [1] is listed as “++ (++ = 25-50%)”. In addition, the “Cell Death” value in the series on Jurkat cells is given as “− (− = 0-10%)”.

`Cc1cc(Nc2ncnc(N)c2C)c(=O)n2c1C(=O)NC21CCCN(C)C1` (stereo not shown) [Compound 917]: the “% PD-1 + Inhibition” value in series [1] was “++ (++ = 25-50%)”. Moreover, in the series on Jurkat cells, the “Cell Death” value is given as “+ (+ = 10-25%)”.

As to `Cc1cc(Nc2ncnc(N)c2Cl)c(=O)n2c1C(=O)N[C@]21CCCNC1` [Compound 969], the “% PD-1 + Inhibition” value in series [1] was “+++ (+++ = 50-75%)”. Besides, the “Cell Death” value with Jurkat cells is recorded as “− (− = 0-10%)”.

As to `Cc1cc(Nc2ncnc(N)c2Cl)c(=O)n2c1C(=O)N[C@@]21CCCNC1` [Compound 970], the “% PD-1 + Inhibition” value in series [1] is “+++ (+++ = 50-75%)”. For the same molecule, the “Cell Death” value in the series with Jurkat cells is reported as “− (− = 0-10%)”.

`Cc1cc(Nc2ncnc(N)c2Cl)c(=O)n2c1C(=O)NC21CCN(C)CC1(C)C` (stereo not shown) [Compound 1008]: the “% PD-1 + Inhibition” value in series [1] is “+++ (+++ = 50-75%)”. The “Cell Death” value in the series on Jurkat cells was “++ (++ = 25-50%)”.

For `Cc1cc(Nc2ncnc(N)c2Cl)c(=O)n2c1C(=O)NC21CC(C)N(C)C(C)C1` (stereo not shown) [Compound 1031], the “% PD-1 + Inhibition” value in series [1] is listed as “+++ (+++ = 50-75%)”. For the same molecule, the “Cell Death” value in the series on Jurkat cells is reported as “+++ (+++ = 50-75%)”.

With `Cc1cc(Nc2ncnc(N)c2Cl)c(=O)n2c1C(=O)NC21CCN(C)C(C)(C)C1` (stereo not shown) [Compound 1053], the “% PD-1 + Inhibition” value in series [1] was “+ (+ = 10-25%)”. Also, the “Cell Death” value in the series on Jurkat cells is “− (− = 0-10%)”.

In the case of `Cc1cc(Nc2ncnc(N)c2Cl)c(=O)n2c1C(=O)NC21CNCCC1(C)C` (stereo not shown) [Compound 1090], the “% PD-1 + Inhibition” value in series [1] is “+++ (+++ = 50-75%)”. Moreover, the “Cell Death” value with Jurkat cells was “+ (+ = 10-25%)”.

As for `Cc1cc(Nc2ncnc(N)c2C)c(=O)n2c1C(=O)NC21CNCCC1(C)C` (stereo not shown) [Compound 1091], in series [1], the “% PD-1 + Inhibition” value is on record as “++ (++ = 25-50%)”. For the same molecule, the “Cell Death” value with Jurkat cells is on record as “− (− = 0-10%)”.

Consider `Cc1cc(Nc2ncnc(N)c2C)c(=O)n2c1C(=O)NC21CCN(CC(F)F)CC1(C)C` (stereo not shown) [Compound 1092], for which the “% PD-1 + Inhibition” value in series [1] is listed as “++ (++ = 25-50%)”. Also, in the series on Jurkat cells, the “Cell Death” value was “− (− = 0-10%)”.
